Experimental data taken from patent US20150051295A1, “USE OF PROPANOL AND PROPENOL DERIVATIVES AS ANTIOXIDANTS” (MERCK PATENT GmbH, priority 2011, published 2015).

Experiment: Determination of the reducing (=antioxidative) property: TLC plate chromatographed, then sprayed with potassium permanganate solution
Conditions: substance in MTB ether on TLC silica gel 60F254 plate, heptane/ethyl acetate 2/1, then sprayed with freshly prepared KMnO4/NaOH solution
Procedure: Determination of the reducing (=antioxidative) property of 3-(4-tert-butyl phenyl)-1-(4-methoxyphenyl)prop-2-en-1-ol (substance 1a) and of 3-(4-tert-butylphenyl)-1-(4-methoxyphenyl)propan-1-ol (substance 2a): a little substance is dissolved in MTB ether and applied to a TLC plate (TLC silica gel 60F254 plate). The plate is chromatographed with heptane/ethyl acetate 2/1. […] The Rf values are at 0.61 (substance 2a) and 0.35 (substance 1a).

SMILES	reducing (=antioxidative) property: decolourisation of potassium permanganate spray solution at substance spots
COc1ccc(C(O)CCc2ccc(C(C)(C)C)cc2)cc1 (centres unmarked) [substance 2a, 3-(4-tert-butylphenyl)-1-(4-methoxyphenyl)propan-1-ol]	decolorises at the substance spots
COc1ccc(C(O)/C=C/c2ccc(C(C)(C)C)cc2)cc1 (centres unmarked) [substance 1a, 3-(4-tert-butylphenyl)-1-(4-methoxyphenyl)prop-2-en-1-ol]	decolorises at the substance spots
